Laboratory results as given in patent US9107900B2, “Use of dronedarone for the preparation of a medicament for use in the prevention of cardiovascular hospitalization or of morality” (SANOFI, priority 2008, dated 2015).
Structures can show the parent of a compound that is named as a salt.

Test system: patients having a history of atrial fibrillation or atrial flutter
Assay: prospective, multinational, multicentre, double-blind clinical study versus placebo: cardiovascular hospitalizations and mortality
Format: in vivo, human
Details: for HR (95% CI): cardiovascular hospitalization and death / decrease of cardiovascular hospitalization and death: vs placebo
Experimental: The patients had to have a history of atrial fibrillation or flutter and/or could be in normal sinus rhythm or in atrial fibrillation or flutter at inclusion.
The patient recruitment was carried out by taking into account the following inclusion criteria:
• 1) One of the following risk factors had to be present: • age equal to or greater than 70 years, • hypertension (taking antihypertensives of at least two different classes), • diabetes, • history of cerebral stroke (transient ischemic event or completed cerebral stroke) or of systemic embolism, • left atrial diameter greater than or equal to 50 mm measured by echocardiography, • left ventricular ejection fraction less than 40%, measured by two-dimensional echography; or • age equal to or above 70, or even above 75, possibly combined with at least one of the risk factors below: • hypertension (taking antihypertensives of at least two different classes), • diabetes, • history of cerebral stroke (transient ischemic event or completed cerebral stroke) or of systemic embolism, • left atrial diameter greater than or equal to 50 mm measured by echocardiography, • left ventricular ejection fraction less than 40%, measured by two-dimensional echography; • 2) availability of an electrocardiogram carried out during the past 6 months in order to document the presence or the history of atrial fibrillation or flutter; • 3) availability of an electrocardiogram carried out during the past 6 months in order to document the presence or absence of normal sinus rhythm. […] Criteria Related to a Cardiac Condition: • Patients in permanent atrial fibrillation • Patients in unstable hemodynamic condition such as acute pulmonary edema within 12 hours prior to start of study medication; cardiogenic shock; treatment with IV pressor agents; patients on respirator; congestive heart failure of stage NYHA IV within the last 4 weeks; uncorrected, hemodynamically significant primary obstructive valvular disease; hemodynamically significant obstructive cardomyopathy; a cardiac operation or revascularization procedure within 4 weeks preceding randomization • Planned major non-cardiac or cardiac surgery or procedures including surgery for valvular heart disease, coronary artery bypass graft (CABG), percutaneous coronary intervention (PCI), or on urgent cardiac transplantation list • Acute myocarditis or constrictive pericarditis • Bradycardia<50 bpm and/or PR-interval>0.28 sec on the last 12-lead ECG. • Significant sinus node disease (documented pause of 3 seconds or more) or 2nd or 3rd degree atrioventricular block (AV-block) unless treated with a pacemaker. Criteria Related to Concomitant Medications:
Need of a concomitant medication that is prohibited in this trial, including the requirement for Vaughan Williams Class I and III anti-arrhythmic drugs, that would preclude the use of study drug during the planned study period, i.e. patients have to stop others antiarrhythmics such as Vaughan Williams Class I and III anti-arrhythmic drugs, for example amiodarone, flecamide, propafenone, quinidine, disopyramide, dofetilide, solatol.
• Plasma potassium<3.5 mmol/l (as anti-arrhythmic drugs can be arrhythmogenic in patients with hypokalemia, this must be corrected prior to randomization. • A calculated GFR at baseline<10 ml/min using the Cockroft Gault formula (GFR [ml/min]=(140−AGE [years]*WEIGHT [kilograms]*CONSTANT/CREATININE [μmol/L], where CONSTANT is […]).
Furthermore, the concomitant use of grapefruit juice and all potent inhibitors of CYP3A4 such as ketoconazole were prohibited.
Treatment was initiated using tablets containing either the placebo or an amount of dronedarone hydrochloride corresponding to 400 mg of dronedarone at a rate of twice a day with the morning and evening meal and more specifically at a rate of one tablet in the morning during or shortly after breakfast and one tablet in the evening during or shortly after dinner. […]

[1] = III.30 cardiovascular hospitalization, Dronedarone N = 2301
[2] = III.31 hospitalization not due to supraventricular arrhythmia, Dronedarone N = 2301

CCCCc1oc2ccc(NS(C)(=O)=O)cc2c1C(=O)c1ccc(OCCCN(CCCC)CCCC)cc1 [dronedarone hydrochloride, 2-n-Butyl-3-[4-(3-di-n-butylaminopropoxy)benzoyl]-5-methylsulphonamidobenzofuran]
HR (95% CI): cardiovascular hospitalization and death (Age ≧75 years (N 1925)): 0.75 (0.65, 0.87) | decrease of cardiovascular hospitalization and death (Age ≧75 years): 25% | HR (95% CI): cardiovascular hospitalization and death (Diabetes (N 945)): 0.75 (0.61, 0.91) | decrease of cardiovascular hospitalization and death (Diabetes): 25% | HR (95% CI): cardiovascular hospitalization and death (Hypertension (N 3995)): 0.77 (0.69, 0.85) | decrease of cardiovascular hospitalization and death (Hypertension): 23% | Any cardiovascular hospitalization, number [1]: 675 | Any cardiovascular hospitalization, percent [1]: (29.3%) | Atherosclerosis related (if not otherwise specified), number [1]: 11 | Atherosclerosis related (if not otherwise specified), percent [1]: (0.5%) | Atrial fibrillation and other supraventricular rhythm disorders, number [1]: 296 | Atrial fibrillation and other supraventricular rhythm disorders, percent [1]: (12.9%) | Blood pressure related (hypotension, hypertension; except syncope), number [1]: 21 | Blood pressure related (hypotension, hypertension; except syncope), percent [1]: (0.9%) | Cardiovascular infection, number [1]: 4 | Cardiovascular infection, percent [1]: (0.2%) | Cardiovascular surgery except cardiac transplantation, number [1]: 21 | Cardiovascular surgery except cardiac transplantation, percent [1]: (0.9%) | Implantation of a pacemaker, ICD or any other cardiac device, number [1]: 32 | Implantation of a pacemaker, ICD or any other cardiac device, percent [1]: (1.4%) | Major bleeding (requiring two or more units of blood or any intracranial hemorrhage), number [1]: 21 | Major bleeding (requiring two or more units of blood or any intracranial hemorrhage), percent [1]: (0.9%) | Myocardial infarction or unstable angina, number [1]: 48 | Myocardial infarction or unstable angina, percent [1]: (2.1%) | Non-fatal cardiac arrest, number [1]: 3 | Non-fatal cardiac arrest, percent [1]: (0.1%) | Other ventricular arrhythmia, number [1]: 1 | Other ventricular arrhythmia, percent [1]: (<0.1%) | Pulmonary embolism or deep vein thrombosis, number [1]: 10 | Pulmonary embolism or deep vein thrombosis, percent [1]: (0.4%) | Stable angina pectoris or atypical chest pain, number [1]: 45 | Stable angina pectoris or atypical chest pain, percent [1]: (2.0%) | Syncope, number [1]: 21 | Syncope, percent [1]: (0.9%) | TIA or stroke (except intracranial hemorrhage), number [1]: 28 | TIA or stroke (except intracranial hemorrhage), percent [1]: (1.2%) | Transcutaneous coronary, cerebrovascular or peripheral procedure, number [1]: 27 | Transcutaneous coronary, cerebrovascular or peripheral procedure, percent [1]: (1.2%) | Ventricular extrasystoles, number [1]: 1 | Ventricular extrasystoles, percent [1]: (<0.1%) | Ventricular fibrillation, number [1]: 1 | Ventricular fibrillation, percent [1]: (<0.1%) | Ventricular tachycardia (non-sustained and sustained), number [1]: 6 | Ventricular tachycardia (non-sustained and sustained), percent [1]: (0.3%) | Worsening heart failure, including pulmonary edema or dyspnea of cardiac origin, number [1]: 78 | Worsening heart failure, including pulmonary edema or dyspnea of cardiac origin, percent [1]: (3.4%) | Any non-AF cardiovascular hospitalization, number [2]: 438 | Any non-AF cardiovascular hospitalization, percent [2]: (19.0%) | Atherosclerosis related (if not otherwise specified), number [2]: 11 | Atherosclerosis related (if not otherwise specified), percent [2]: (0.5%) | Blood pressure (hypotension, hypertension, not syncope), number [2]: 25 | Blood pressure (hypotension, hypertension, not syncope), percent [2]: (1.1%) | Cardiovascular infection, number [2]: 4 | Cardiovascular infection, percent [2]: (0.2%) | Cardiovascular surgery except cardiac transplantation, number [2]: 24 | Cardiovascular surgery except cardiac transplantation, percent [2]: (1.0%) | Implantation of a pacemaker, ICD or any other cardiac device, number [2]: 46 | Implantation of a pacemaker, ICD or any other cardiac device, percent [2]: (2.0%) | Major bleeding (requiring two or more units of blood or any intracranial hemorrhage), number [2]: 27 | Major bleeding (requiring two or more units of blood or any intracranial hemorrhage), percent [2]: (1.2%) | Myocardial infarction or unstable angina, number [2]: 52 | Myocardial infarction or unstable angina, percent [2]: (2.3%) | Non-fatal cardiac arrest, number [2]: 3 | Non-fatal cardiac arrest, percent [2]: (0.1%) | Other ventricular arrhythmia, number [2]: 1 | Other ventricular arrhythmia, percent [2]: (<0.1) % | Pulmonary embolism or deep vein thrombosis, number [2]: 11 | Pulmonary embolism or deep vein thrombosis, percent [2]: (0.5%) | Stable angina pectoris or atypical chest pain, number [2]: 51 | Stable angina pectoris or atypical chest pain, percent [2]: (2.2%) | Syncope, number [2]: 23 | Syncope, percent [2]: (1.0%) | TIA or stroke (except intracranial hemorrhage), number [2]: 32 | TIA or stroke (except intracranial hemorrhage), percent [2]: (1.4%) | Transcutaneous coronary, cerebrovascular or peripheral procedure, number [2]: 31 | Transcutaneous coronary, cerebrovascular or peripheral procedure, percent [2]: (1.3%) | Ventricular extrasystoles, number [2]: 1 | Ventricular extrasystoles, percent [2]: (<0.1) % | Ventricular fibrillation, number [2]: 1 | Ventricular fibrillation, percent [2]: (<0.1) % | Ventricular tachycardia (non-sustained and sustained), number [2]: 6 | Ventricular tachycardia (non-sustained and sustained), percent [2]: (0.3%) | Worsening heart failure, including pulmonary edema or dyspnea of cardiac origin, number [2]: 89 | Worsening heart failure, including pulmonary edema or dyspnea of cardiac origin, percent [2]: (3.9%) | HR (95% CI): cardiovascular hospitalization and death (LVEF <0.40 (N 338)): 0.72 (0.51, 1.00) | decrease of cardiovascular hospitalization and death (LVEF <0.40): 28%
